Assay results from ChEMBL document CHEMBL2375326, “Novel IKKβ inhibitors discovery based on the co-crystal structure by using binding-conformation-based and ligand-based method” (Eur J Med Chem, 2013).

molecular target: T1, Inhibitor of nuclear factor kappa-B kinase subunit beta (Homo sapiens, UniProt O14920); settings: read-out: IC50
T1 sequence (O14920 whole entry): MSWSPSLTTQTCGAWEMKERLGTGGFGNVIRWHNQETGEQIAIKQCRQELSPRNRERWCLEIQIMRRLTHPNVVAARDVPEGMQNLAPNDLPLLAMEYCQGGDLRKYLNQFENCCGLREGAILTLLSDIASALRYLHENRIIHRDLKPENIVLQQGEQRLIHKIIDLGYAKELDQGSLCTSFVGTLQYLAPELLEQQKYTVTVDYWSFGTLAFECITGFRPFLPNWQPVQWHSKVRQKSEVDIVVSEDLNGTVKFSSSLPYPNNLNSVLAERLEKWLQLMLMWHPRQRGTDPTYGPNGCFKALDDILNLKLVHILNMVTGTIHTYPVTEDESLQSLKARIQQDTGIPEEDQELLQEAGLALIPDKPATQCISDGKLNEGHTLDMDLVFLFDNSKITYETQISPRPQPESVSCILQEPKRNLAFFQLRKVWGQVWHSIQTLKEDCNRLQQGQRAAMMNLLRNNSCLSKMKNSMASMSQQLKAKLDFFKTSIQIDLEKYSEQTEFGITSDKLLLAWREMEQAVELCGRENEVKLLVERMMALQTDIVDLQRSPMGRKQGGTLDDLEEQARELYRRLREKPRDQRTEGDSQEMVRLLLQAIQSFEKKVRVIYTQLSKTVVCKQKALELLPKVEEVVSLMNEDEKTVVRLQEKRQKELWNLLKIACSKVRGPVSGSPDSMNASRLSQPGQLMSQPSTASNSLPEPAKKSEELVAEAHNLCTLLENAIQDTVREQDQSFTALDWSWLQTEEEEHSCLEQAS

IC50 [nM]	SMILES
9690	Cc1sc(N)c2c(=O)oc3c4ccccc4ccc3c12
2440	Cc1c(-c2ccc3c(c2)COC3)sc(N)c1C#N

same assay, conditions: read-out: pIC50 (converted)

IC50 [nM]	SMILES
7.08	CNc1nc2[nH]c(-c3cccc(C#N)c3)cc2c2c1ncn2C
117	O=S(=O)(c1ccc(-c2ccnc(Nc3cc(F)cc(F)c3)n2)cc1)N1CCNCC1
6030	c1ccc(Oc2ccc(-c3ccnc(Nc4ccc5ncsc5c4)n3)cc2)cc1
21.9	CNc1nc2[nH]c(-c3cccc(CNC(=O)CCC(N)=O)c3)cc2c2c1ncn2C
25.7	CC(=O)c1cc2cc(Nc3nccc(-c4ccc(S(=O)(=O)N5CCNCC5)cc4)n3)ccc2o1
32.4	CNCCNS(=O)(=O)c1ccc(-c2ccnc3[nH]ccc23)cc1
39.8	Cc1cnc2c(NCCN3CCNCC3)nc3cc(-c4ccccc4)sc3n12
15.1	CCNC(=O)c1ccc(-c2nc3c(nc(NC)c4ncn(C)c43)s2)cc1
42.7	CNc1nc2[nH]c(-c3ccc(F)cc3)cc2c2c1ncn2C
7.94	CNc1nc2[nH]c(-c3cccc(OC)c3)cc2c2c1ncn2C
9.12	N#Cc1c(C2CCCNC2)cc(-c2c(O)cccc2OCc2ccccc2)nc1N (configuration not stated)
316	CN(c1ccc(-c2ccnc3[nH]ccc23)cc1)S(C)(=O)=O
26.3	CNc1nc2sc(-c3ccc(F)cc3)nc2c2c1ncn2C
20000	N#Cc1c(-c2ccc([N+](=O)[O-])cc2)cc(-c2ccccc2O)nc1N
26.3	N#Cc1c(C2CCCNC2)cc(-c2c(O)cccc2OCC2CCCCC2)nc1N (configuration not stated)
9.12	CNc1nc2cc(-c3cccc(CCC(=O)O)c3)sc2n2c(C)cnc12
25.1	NC(=O)Nc1cc(-c2ccccc2)sc1C(N)=O
100000	CNC(=O)c1sc(-c2ccccc2)cc1NC(N)=O
229	CNc1nc2cc(-c3nccs3)sc2c2c1ncn2C
2510	O=C1C=CC(c2ccc(-c3ccnc(Nc4ccc5ncsc5c4)n3)cc2)C=C1
15.1	CNc1nc2sc(-c3ccc(C(=O)NCc4cccs4)cc3)nc2c2c1ncn2C

IC50 [nM]	SMILES
33.1	CNc1nc2sc(-c3ccc(N4CC=CCC4)cc3)nc2c2c1ncn2C
1580	NC(=O)c1sc(-c2ccccc2)cc1NS(=O)(=O)c1ccc(F)cc1
39.8	NC(=O)Nc1cc(-c2cccc(Cl)c2)sc1C(N)=O
100000	NC(=O)Nc1sc(C#Cc2cccc(NC(=O)c3ccccn3)c2)cc1C(N)=O
20000	CN(C)c1ccc(-c2cc(-c3ccccc3O)nc(N)c2C#N)cc1
2.51	Cc1cnc2c(NCCN)nc3cc(-c4ccc[nH]4)sc3n12
3240	NC(=O)c1sc(-c2ccccc2)cc1N
28.2	CNc1nc2sc(-c3ccc(SC)cc3)nc2c2c1ncn2C
21.9	CNc1nc2cc(-c3ccccc3)sc2n2c(C)cnc12
12	CNc1nc2[nH]c(-c3cccc(CNC(=O)CCOC)c3)cc2c2c1ncn2C
15800	CNC(=O)c1cc(-c2ccc(F)cc2)cc(-c2ccc(N3CCCCC3)cc2)c1N
15.1	CNC(=O)c1ccc(-c2nc3c(nc(NC)c4ncn(C)c43)s2)cc1
15800	COc1c(C(N)=O)cc(-c2ccccc2)cc1-c1ccncc1
20000	CCS(=O)(=O)N1CCC(COc2cc3cnccc3cc2-c2ccccc2)CC1
447	Cc1cnc2c(NCCN)nc3cc(-c4ncc[nH]4)sc3n12
8.51	C#Cc1c(C2CCNCC2)cc(-c2c(O)cccc2OCC2CC2)nc1N
263	NC(=O)Nc1sc(C#CC2CC2)cc1C(N)=O
100000	NC(=O)c1sc(-c2ccccc2)cc1NC(=O)NCc1ccccc1
10000	NC(=O)Nc1ncc(-c2ccccc2)nc1C(N)=O
> 100000	CN(CCN)C(=O)c1ccc(Nc2nccc(-c3cc4ccccc4s3)n2)cc1
15800	CNC(=O)c1cc(-c2ccc(F)cc2)cc(-c2ccc(S(C)(=O)=O)cc2)c1N

molecular target: T2, Inhibitor of nuclear factor kappa-B kinase subunit beta (Homo sapiens) (UniProt O14920); assay: Inhibition of human IKKbeta using GST-IkappaBalpha as substrate at 10 uM; settings: not given
T2 sequence (whole entry): T1 sequence (O14920 whole entry)

inhibition [%]	SMILES
23.4	Cc1ccc(-c2cc3c(c(N)c2C#N)c(=O)oc2ccccc23)o1
100	N#Cc1c(C2CCNCC2)cc(-c2c(O)cccc2OCC2CC2)nc1N
64.1	Cc1sc(N)c2c(=O)oc3c4ccccc4ccc3c12
44.8	OC[C@@H](O)[C@@H](O)[C@H](O)c1nn(-c2ccccc2)c2nc3ccc(Cl)cc3nc12
44.3	CC[C@H](OC(=O)Nc1ccc(S(=O)(=O)N2CCCCC2)cc1)c1ccco1
43.8	CCOC(=O)c1c(N)oc(=O)c2c1-c1ccccc1C2=O
47.1	Nc1nc(=O)c2ncn(-c3cccc(-c4ccccc4)c3)c2[nH]1
92.4	Cc1c(-c2ccc3c(c2)COC3)sc(N)c1C#N
36.7	CC(C)NC[C@@H](O)COc1cccc2[nH]c3ccccc3c12
29.6	O=C(c1ccco1)c1coc2c1cc(O)c1ccccc12
23.8	COC(=O)c1ccc(NC(=O)COc2ccc(S(=O)(=O)NC(C)(C)C)cc2)cc1
41.5	CCCCc1ccc(-n2cnc3c(=O)[nH]c(N)nc32)cc1
44.4	NC(=O)C[C@H](Nc1ncc2c(n1)-c1ccccc1OC2)C(=O)O
